Source: patent US12221432B2, “Estrogen receptor antagonist” (CHIA TAI TIANQING PHARMACEUTICAL GROUP CO., LTD., priority 2018, dated 2025)
pIC50: −log10 of the molar value. Where a name gives a salt, the structure may show the parent alone.

Legend:
CYP2D6 = target: T1, CYP2D6 (Homo sapiens, UniProt P10635); assay: Cytochrome P450 isoenzyme inhibition, CYP2D6; assay type: in vitro ADME; settings: human liver microsomes; read-out: CYP enzyme inhibition (IC50) 2D6
T1 construct: tissue Corning Co., Ltd; host or cells: human liver microsomes
T1 sequence (P10635 whole entry): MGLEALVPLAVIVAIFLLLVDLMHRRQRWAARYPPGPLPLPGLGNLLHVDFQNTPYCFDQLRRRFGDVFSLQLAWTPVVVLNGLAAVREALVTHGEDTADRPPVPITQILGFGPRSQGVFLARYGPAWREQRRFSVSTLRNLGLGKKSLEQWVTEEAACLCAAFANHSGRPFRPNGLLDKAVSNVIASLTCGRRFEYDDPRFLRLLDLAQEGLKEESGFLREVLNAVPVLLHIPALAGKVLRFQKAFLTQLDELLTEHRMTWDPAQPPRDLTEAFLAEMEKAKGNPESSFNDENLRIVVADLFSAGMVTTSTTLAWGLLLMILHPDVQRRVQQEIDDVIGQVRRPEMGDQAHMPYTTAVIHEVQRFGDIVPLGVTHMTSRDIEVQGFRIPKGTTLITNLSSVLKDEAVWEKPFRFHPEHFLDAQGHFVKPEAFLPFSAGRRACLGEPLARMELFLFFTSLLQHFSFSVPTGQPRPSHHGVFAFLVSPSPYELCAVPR
Source text: (§1) Experimental objective: To determine the inhibitory effect of the test compound on the activity of human liver microsomal cytochrome P450 isoenzymes (CYP1A2, CYP2C9, CYP2C19, CYP2D6 and CYP3A4; Corning Co., Ltd.). […]

CYP1A2 = target: T2, CYP1A2 (Homo sapiens, UniProt P05177); assay: Cytochrome P450 isoenzyme inhibition, CYP1A2; assay type: in vitro ADME; settings: human liver microsomes; read-out: CYP enzyme inhibition (IC50) 1A2
T2 construct: tissue Corning Co., Ltd; host or cells: human liver microsomes
T2 sequence (P05177 1-516): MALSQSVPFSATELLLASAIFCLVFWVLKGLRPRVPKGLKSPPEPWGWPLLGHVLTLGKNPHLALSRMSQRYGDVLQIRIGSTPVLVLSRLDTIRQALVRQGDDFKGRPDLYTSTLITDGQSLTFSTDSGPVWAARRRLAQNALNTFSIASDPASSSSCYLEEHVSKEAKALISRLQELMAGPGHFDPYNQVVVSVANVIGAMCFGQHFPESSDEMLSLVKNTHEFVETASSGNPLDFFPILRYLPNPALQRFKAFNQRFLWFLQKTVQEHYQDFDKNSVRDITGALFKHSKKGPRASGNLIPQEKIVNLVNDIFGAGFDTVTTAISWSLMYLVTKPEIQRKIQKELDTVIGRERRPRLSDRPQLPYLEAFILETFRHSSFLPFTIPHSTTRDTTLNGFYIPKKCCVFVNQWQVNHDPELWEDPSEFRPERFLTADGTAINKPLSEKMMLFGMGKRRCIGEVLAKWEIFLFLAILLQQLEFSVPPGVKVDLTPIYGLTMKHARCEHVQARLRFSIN
Source text: as §1

[1] = Metabolic stability in liver microsome (SD rat); assay type: in vitro ADME, SD rats
Protocol: (§2) Objective: To determine the metabolic stability of test compounds in the liver microsomes of humans, CD-1 5 mice and SD rats (Corning Co., Ltd., Miaotong Biological Technology Co., Ltd., Miaotong Biological Technology Co., Ltd.).
(§3) Procedures: Firstly, eight 96-well plates were prepared, and named T0, T5, T10, T20, T30, T60, NCF60 and BLANK; except for BLANK (added with buffer at 10 μL/well), the plates were added with the solution of compounds at 10 μL/well. Prepared microsomes were added to the 7 plates (80 μL/well), except for the T0 10 plate. The NCF60 plate was added with the buffer at 10 μL/well, and incubated in a 37° C. water bath, and timing was started:
(§4) Prepared NADPH cofactor working solution was aliquoted into a 96-well shallow-well plate serving as a loading slot. Each plates was added with the solution to at 10 μL/well by a 96-channel pipette and incubated in a 37° C. water bath to start the reaction:
(§5) At each time point, termination solution (cold acetonitrile containing 100 ng/mL Tolbutamide and 100 ng/mL Labetalol as internal standard) was added at 300 μL/well to stop the reaction, and the mixture was mixed well; the mixture was centrifuged at 4000 rpm for 20 minutes to precipitate the protein; the supernatant was transferred at 100 μL/well to a new 96-well plate containing 300 μL/well of HPLC water with a 96-channel pipette, and the mixture was mixed well. […]

CYP2C19 = target: T3, CYP2C19 (Homo sapiens, UniProt P33261); assay: Cytochrome P450 isoenzyme inhibition, CYP2C19; assay type: in vitro ADME; settings: human liver microsomes; read-out: CYP enzyme inhibition (IC50) 2C19
T3 construct: tissue Corning Co., Ltd; host or cells: human liver microsomes
T3 sequence (P33261 whole entry): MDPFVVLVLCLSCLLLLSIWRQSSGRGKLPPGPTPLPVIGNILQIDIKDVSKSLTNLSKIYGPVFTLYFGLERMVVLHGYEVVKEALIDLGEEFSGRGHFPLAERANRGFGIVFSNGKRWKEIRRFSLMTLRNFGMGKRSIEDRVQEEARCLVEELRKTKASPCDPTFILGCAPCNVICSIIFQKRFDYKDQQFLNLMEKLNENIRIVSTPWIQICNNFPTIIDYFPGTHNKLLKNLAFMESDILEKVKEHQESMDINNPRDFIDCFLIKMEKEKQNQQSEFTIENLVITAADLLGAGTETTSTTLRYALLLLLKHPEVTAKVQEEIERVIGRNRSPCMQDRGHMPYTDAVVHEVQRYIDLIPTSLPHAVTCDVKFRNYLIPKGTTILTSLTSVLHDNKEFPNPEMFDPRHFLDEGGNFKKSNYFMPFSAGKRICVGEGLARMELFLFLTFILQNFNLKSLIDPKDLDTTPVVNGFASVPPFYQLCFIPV
Source text: as §1

[2] = Metabolic stability in liver microsome (CD-1 mouse); assay type: in vitro ADME, CD-1 mice
Protocol: as §2, §3, §4, §5

CYP3A4 = target: T4, CYP3A4 (Homo sapiens, UniProt P08684); assay: Cytochrome P450 isoenzyme inhibition, CYP3A4; assay type: in vitro ADME; settings: human liver microsomes; read-out: CYP enzyme inhibition (IC50) 3A4
T4 construct: tissue Corning Co., Ltd; host or cells: human liver microsomes
T4 sequence (P08684 whole entry): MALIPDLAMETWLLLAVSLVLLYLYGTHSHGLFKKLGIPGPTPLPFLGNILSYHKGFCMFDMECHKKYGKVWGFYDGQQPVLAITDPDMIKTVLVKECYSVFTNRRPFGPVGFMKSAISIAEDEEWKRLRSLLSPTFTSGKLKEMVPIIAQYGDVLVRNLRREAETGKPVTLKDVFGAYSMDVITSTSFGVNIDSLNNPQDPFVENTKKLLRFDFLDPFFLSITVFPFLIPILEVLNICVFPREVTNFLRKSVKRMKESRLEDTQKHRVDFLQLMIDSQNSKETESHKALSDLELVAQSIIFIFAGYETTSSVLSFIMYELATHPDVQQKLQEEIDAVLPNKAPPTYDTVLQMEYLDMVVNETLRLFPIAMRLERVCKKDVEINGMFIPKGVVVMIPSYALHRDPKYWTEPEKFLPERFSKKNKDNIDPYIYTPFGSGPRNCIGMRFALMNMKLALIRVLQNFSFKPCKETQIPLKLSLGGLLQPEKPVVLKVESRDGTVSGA
Source text: as §1

With `CC/C(=C(/c1ccc(OCCNC/C=C/C(=O)N(C)C)nc1)c1[nH]c2ccccc2c1Cl)c1ccccc1` [Compound 3 monohydrochloride] the pIC50 (CYP2D6) was 4.59, the pIC50 (CYP1A2) was 4.35 and the “Stability in liver microsomes” value [1] was 35. The pIC50 (CYP2C19) was 5.41, the “Stability in liver microsomes” value [2] was 43 and the pIC50 (CYP3A4) was 5.01.
